# Values quoted from earlier work as cited in patent US20040097717A1, “Control of aerial branching” (priority 2000, published 2004).
# Key:
# lateral buds = settings: exogenous application to lateral buds (Tames et al., 1979)
# Phaseolus vulgaris = settings: decapitated Phaseolus vulgaris, IAA application (Knox and Wareing, 1984)
SMILES,lateral bud elongation (lateral buds),lateral bud elongation / decrease in ABA level after decapitation (Phaseolus vulgaris)
"CC1=CC(=O)CC(C)(C)[C@@]1(O)/C=C/C(C)=C\C(=O)O [ABA, abscisic acid]",inhibited elongation,
O=C(O)Cc1c[nH]c2ccccc12 [IAA],,reversed
